In PubChem BioAssay AID493172 (Broad Institute, 2011):
Active and inactive are the calls of the source.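 How the source made its calls: active means falling signal with an AC50 no greater than ten times the top valid dose tested for that sample; inconclusive means flat curve with inhibition of 30 to 70 percent, or poor fit; inactive means activity in the rising direction, and the rest.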

Biological target: LuxS (S-ribosylhomocysteine lyase), bacterial
Assay: S-ribosylhomocysteine lyase activity inhibition – biochemical, dry powder, set 2, absorbance, dose response (AID 493172)
Conditions: purified Co-LuxS, DTNB homocysteine absorbance 412 nm; for activity change, negative = inhibition: at 35 µM (top of the series)

activity change, negative = inhibition	AC50	SMILES
inactive	–	Cc1cccc(NC(=O)c2ccc(Oc3ccccc3)cc2)n1
inactive	–	CCc1ccc(S(=O)(=O)Nc2ccc(Br)cn2)cc1
inactive	–	Cn1cnc(S(=O)(=O)Nc2ccc(OC(F)(F)F)cc2)c1
inactive	–	COc1cc(NC(=O)CN2C(=O)NC(c3ccccc3)(c3ccccc3)C2=O)cc(OC)c1
–	> 35 µM (inactive)	C=Cn1c(C(=O)O)ccc1-c1ccc(CC)cc1
inactive	–	Cc1cccc(NS(=O)(=O)c2ccc(Oc3ccccc3)cc2)n1
inactive	–	CCc1ccc(C(=O)Nc2ccc(Br)cn2)cc1
